Results on one molecule are retold here after article PMC12657586, “Therapeutic effect of an MRGPRX2/MRGPRB2 antagonist on LL-37-induced rosacea-like inflammation in mice” (Inflammation Research, 2025).

One may read the IC50 as the midpoint of a concentration-inhibition curve.

This assay concerns the target T1, MRGPRX2 (Mas-related G protein-coupled receptor X2) (Homo sapiens, UniProt Q96LB1).
T1 sequence (Q96LB1 1-330): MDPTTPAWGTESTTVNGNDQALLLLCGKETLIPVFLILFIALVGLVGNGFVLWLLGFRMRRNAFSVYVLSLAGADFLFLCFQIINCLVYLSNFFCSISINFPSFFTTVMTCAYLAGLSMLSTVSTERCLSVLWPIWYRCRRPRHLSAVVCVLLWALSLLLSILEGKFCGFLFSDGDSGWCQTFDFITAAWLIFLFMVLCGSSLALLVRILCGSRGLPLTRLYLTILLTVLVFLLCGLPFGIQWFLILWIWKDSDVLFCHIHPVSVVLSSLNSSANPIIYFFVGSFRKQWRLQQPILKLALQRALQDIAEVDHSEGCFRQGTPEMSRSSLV
The assay is described as follows: Fluo-4 calcium flux assay in MRGPRX2-transfected HEK-293 cells, antagonism of LL-37. The class given is cell-based. (In general: Calcium flux is commonly read through the fluorescence of an indicator in the cells.)

As to `COC(=O)c1cc2cc(NC(N)=O)ccc2cc1-c1cc2c3c(c(O)ccc3c1)C(C)C(C=O)=C2` (stereo not shown) [GE1111], the IC50 was 12.3 µM.
